Where two headings read alike, the source gives them in different places.
Key:
in vitro [1] = conditions: PAMPA
physchem = conditions: HPLC, Ascentis Express RP Amide column, pH 7.4, eLogD, experimental
[2] = test system: Trypanosoma cruzi, Tulahuen CL2, beta-galactosidase strain; assay: microbe, parasite or virus in culture; conditions: MRC5, read-out: T. cruzi Tulahuen C4 (LacZ) IC50 (uM)
in vitro [3] = conditions: human, microsomes, pH 7.4, HLM CLint (uL/min/mg), human liver microsomes
in vitro [4] = conditions: mouse, microsomes, pH 7.4, MLM CLint (uL/min/mg), mouse liver microsomes
[5] = test system: primary peritoneal mouse macrophages (PMM); assay: cells; conditions: Macrophage, read-out: PMM IC50 (uM)
in vitro [6] = conditions: human, HepG2 cells
in vitro [7] = conditions: human, HFF-1 cells
[8] = test system: Leishmania infantum MHOM/MA(BE)/67/ITMAP263 intracellular amastigotes; assay: microbe, parasite or virus in culture; conditions: Macrophage, in Mus musculus
in vitro [9] = conditions: human
[10] = read-out: L. Inf. pIC50, from L. infantum intracellular amastigote IC50 (converted)
[11] = read-out: L. infantum MHOM/MA(BE)/67/ITMAP263 intracellular amastigotes IC50 (uM), intracellular amastigotes

Compound	Papp (in vitro [1])	chromatographic logD (physchem)	IC50 [2]	microsomal CLint at 0.5 μM (in vitro [3])	microsomal CLint at 0.5 μM (in vitro [4])	IC50 [5]	CC50 (in vitro [6])	CC50 (in vitro [7])	IC50 [8, 10]	IC50 [8, 11]	CC50 at 3 days (in vitro [9])
CNCCOc1ccc(F)cc1S(=O)(=O)N(Cc1ccc(F)cc1)Cc1ccc(F)cc1 [DNDI0003389318]	0.43 ×10⁻⁶ cm/s	5.3	5.11 µM	46 µL/min/mg	84 µL/min/mg	8 µM	6.84 µM	7.25 µM	2.4 µM	2.38 µM	4.22 µM
COc1ccc(Cl)cc1S(=O)(=O)N(Cc1ccccc1)C(CO)c1ccc(F)cc1 (stereo not drawn) [DNDI0003388149]	3.4 ×10⁻⁶ cm/s	–	15.8 µM	18 µL/min/mg	38 µL/min/mg	> 64 µM	15.7 µM	1.25 µM	1.7 µM	1.69 µM	21.6 µM
O=S(=O)(c1ccccn1)N(Cc1ccccc1)Cc1ccccc1 [DNDI0003389646]	9.55 ×10⁻⁶ cm/s	4	27.7 µM	218 µL/min/mg	449 µL/min/mg	> 64 µM	> 64 µM	33.8 µM	16.2 µM	16.1 µM	> 64 µM
N#Cc1ccccc1S(=O)(=O)N(Cc1ccccc1)Cc1ccccc1 [DNDI0003389641]	1.66 ×10⁻⁶ cm/s	4.2	18.4 µM	577 µL/min/mg	–	> 64 µM	> 64 µM	1.28 µM	11.2 µM	11.3 µM	> 64 µM
COc1ccc(C#N)cc1S(=O)(=O)N(Cc1ccc(F)cc1)C1CCOCC1 [DNDI0003388084]	12.7 ×10⁻⁶ cm/s	–	53.1 µM	194 µL/min/mg	253 µL/min/mg	> 64 µM	> 64 µM	44.1 µM	> 64 µM	> 64 µM	> 64 µM
COc1ccc(OC)c(S(=O)(=O)N(Cc2ccc(F)cc2)Cc2cnc(OC)nc2OC)c1 [DNDI0003389321]	15.2 ×10⁻⁶ cm/s	–	27.8 µM	270 µL/min/mg	861 µL/min/mg	> 64 µM	> 64 µM	> 64 µM	53.7 µM	53.8 µM	> 64 µM
COc1ccc(OC)c(S(=O)(=O)N(Cc2ccc(F)cc2)Cc2ccc(C#N)cc2)c1 [DNDI0003388088]	3.57 ×10⁻⁶ cm/s	4.1	19 µM	87 µL/min/mg	–	> 64 µM	36.2 µM	51.9 µM	18.6 µM	18.6 µM	> 64 µM
COc1ccc(C(=O)NC2COC2)cc1S(=O)(=O)N(Cc1ccc(F)cc1)Cc1ccc(F)cc1 [DNDI0003371174]	4.92 ×10⁻⁶ cm/s	–	38.5 µM	178 µL/min/mg	395 µL/min/mg	> 64 µM	> 64 µM	> 64 µM	0.794 µM	0.79 µM	> 64 µM
COc1ccc(C(=O)N2CCOCC2)cc1S(=O)(=O)N(Cc1ccc(F)cc1)CC(C)C [DNDI0003389127]	17.7 ×10⁻⁶ cm/s	–	39.1 µM	543 µL/min/mg	355 µL/min/mg	> 64 µM	> 64 µM	8.25 µM	6.92 µM	6.86 µM	> 64 µM
COc1ccc(OC)c(S(=O)(=O)N(Cc2ccc(F)cc2)Cc2ccnn2C)c1 [DNDI0003389129]	35.6 ×10⁻⁶ cm/s	–	21.1 µM	207 µL/min/mg	1090 µL/min/mg	45.2 µM	> 64 µM	26.3 µM	5.13 µM	5.19 µM	> 64 µM
